We go through 20 molecules from PubChem BioAssay (NCI).

The structures appear in SMILES notation.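 1) Cells in 96-well plates. 2) Compound, 48 h, 5 concentrations. 3) Linear interpolation between surrounding doses. 4) Unreached endpoint = highest concentration. The concentration for full growth arrest is given as TGI.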 Where a SMILES comes first, the peptide text is derived from it. The star is where a group is joined. Cbz = O=C(OCc1ccccc1)*; Boc = CC(C)(C)OC(=O)*; OBn = c1ccc(CO*)cc1 Some results are limits rather than exact numbers.

Common to all, as to experiment: inhibition of tumour cell growth, NCI panel, 48 h
Assay [1] concerns A498 renal.
The subject of assay [2] is CAKI-1 renal.
For assay [3], the system named is CCRF-CEM leukemia.
The subject of assay [4] is COLO 205 colon.
In assay [5] the test system is DU-145 prostate.
The subject of assay [6] is EKVX NSCLC.
In assay [7] the test system is HOP-62 NSCLC.
Assay [8] concerns KM12 colon.
Assay [9] deals with NCI-H226 lung.
Assay [10] deals with NCI-H460 lung.
Assay [11] relates to OVCAR-3 ovarian.
Assay [12] deals with OVCAR-8 ovarian.
Assay [13] deals with SF-268 CNS.
For assay [14], the system named is SNB-75 CNS.
The subject of assay [15] is OVCAR-4 ovarian.

With `CN(Cc1cnc2nc(N)nc(N)c2n1)c1ccc(C(=O)NC2CCCCC2)cc1`, the TGI was 77.3 µM in assay [1]; > 100 µM in assay [2]; > 100 µM in assay [3]; > 100 µM in assay [4]; > 100 µM in [5]; > 100 µM in assay [6]. Besides, the TGI in assay [7] is > 100 µM; in assay [8], 83.2 µM; in [9] it was 80.4 µM; in [10], 63.5 µM; in assay [11] it was > 100 µM; in [12], > 100 µM. The TGI was > 100 µM in [13] and 65.4 µM in [14].

As for `Cc1ccc2c(c1)C(=O)c1ccc(C)nc1C2=O`, the TGI in assay [1], in assay [2], in assay [3], in [4], in assay [5] and in [6] was > 100 µM throughout. The TGI in assay [7] was > 100 µM; in assay [8], > 100 µM; in [9] it was > 100 µM; in assay [11], > 100 µM; in assay [15] it was 83.7 µM; in assay [12], > 100 µM. Also, the TGI in assay [13] and in assay [14] was > 100 µM throughout.

In the case of `C=CCSC1=N/C(=C\c2ccco2)C(=O)N1CC=C`, the TGI in assay [1] was 94.1 µM; in assay [2] it was > 100 µM; in assay [3] it was > 100 µM; in assay [4] it was > 100 µM; in assay [5], > 100 µM; in assay [6] it was > 100 µM. Besides, the TGI in assay [7], in [8], in assay [9], in assay [10], in [11] and in assay [15] was > 100 µM each time. In addition, the TGI in assay [12] and in [13] was > 100 µM each time.

Take `O=C(O)c1ccccc1/C=C1\Cc2ccc3c(c2C1=O)CCCC3`: the TGI in assay [1] was 89 µM; in assay [3], 66.2 µM; in [4], > 100 µM; in [5], > 100 µM; in [6], > 100 µM; in assay [7], > 100 µM. For the same molecule, the TGI in [8] is > 100 µM; in assay [9], 82.7 µM; in assay [10] it was > 100 µM; in assay [11], > 100 µM; in [15], > 100 µM; in assay [12], > 100 µM. Besides, the TGI in assay [13] is > 100 µM; in assay [14], 86 µM.

Turning to `CCOC(=O)CC(=O)Nc1c(C(=O)OCC)sc2nc(SC)nc(Nc3ccc(OC)c(OC)c3)c12`, the TGI was 82.4 µM in [1]; > 100 µM in assay [2]; > 100 µM in [3]; > 100 µM in assay [4]; > 100 µM in assay [5]; > 100 µM in [6]. Further, the TGI in assay [8] is > 100 µM; in assay [9] it was > 100 µM; in assay [11], 40.1 µM; in assay [15], > 100 µM; in [12] it was > 100 µM; in assay [13] it was > 100 µM. In addition, in assay [14], the TGI worked out at 21.9 µM.

As to `O=C(CN1c2ccccc2Sc2ccccc21)n1cnc2ccccc21`, the TGI in assay [1], in assay [3], in [4], in assay [5], in [6] and in [7] was > 100 µM each time. In addition, the TGI in assay [8], in [9], in [10], in assay [11], in assay [15] and in [12] was > 100 µM in each case. For the same molecule, the TGI in assay [13] and in assay [14] was > 100 µM each time.

For `CC1(C)O[C@@H]([C@@H](O)[C@H](O)C2SCCCS2)[C@@H](CO)O1`, the TGI in assay [1], in [2], in assay [3], in [4], in assay [5] and in [6] was > 100 µM each time. Also, the TGI in assay [7], in assay [8], in assay [9], in assay [10], in [11] and in assay [12] was > 100 µM throughout. The TGI in assay [13] and in assay [14] was > 100 µM each time.

For the molecule `CCOC(=O)/C(C#N)=N\Nc1ccc(-n2c(C)nc3ccc(Br)cc3c2=O)cc1`, the TGI in assay [1], in [2], in assay [3], in assay [4], in assay [5] and in assay [6] was > 100 µM in each case. For the same molecule, the TGI in assay [7], in [8], in assay [9], in assay [10], in assay [11] and in [12] was > 100 µM throughout. The TGI in assay [13] and in assay [14] was > 100 µM throughout.

For `N/C(=N/O)c1cn(C2OC(CO)C(O)C2O)c2ncnc(NO)c12` (centres undefined), the TGI in [1] was 3.01 µM; in assay [4] it was 0.623 µM; in assay [5], > 40 µM; in assay [6], > 100 µM; in assay [7] it was > 100 µM; in [9], 17.4 µM. The TGI is 7.59 µM in assay [10], 5.98 µM in [15], > 100 µM in [12] and > 100 µM in assay [13].

In the case of `Cc1oc2nc(N(C)C)n3c(C)nnc3c2c1C`, the TGI in assay [1], in assay [2], in assay [3], in assay [4], in assay [5] and in [6] was > 100 µM in each case. Also, the TGI in [8], in assay [9], in [15], in assay [12], in [13] and in assay [14] was > 100 µM in each case.

Regarding `CC(=O)/C(=C\n1c(=S)[nH]c2ccc([N+](=O)[O-])cc21)C(=O)Nc1ccccc1C`, the TGI in assay [1], in [2], in assay [3], in assay [4], in assay [5] and in assay [6] was > 100 µM in each case. Moreover, the TGI in [7], in assay [9], in assay [10], in [11], in [15] and in assay [12] was > 100 µM each time.

As to `CCCCC[C@H]1CC=CC(=O)O1`, the TGI was determined as 9.03 µM in [1]; 10.4 µM in [2]; 40.6 µM in [3]; 15.1 µM in assay [4]; 36.1 µM in assay [5]; 56.7 µM in [6]. Besides, the TGI turned out to be 45.3 µM in assay [7]; 13.9 µM in [8]; 23.9 µM in assay [9]; 21.2 µM in assay [10]; 21.9 µM in assay [11]; 27.3 µM in assay [15]. The results for the TGI in [12] and in assay [13] were 24.8 µM and 22.3 µM, respectively.

On to `COc1ccc2c(c1)OCC1Cc3cccc(OC)c3OC21` (centres undefined), for which the TGI in assay [1], in [2], in [3], in assay [4], in [5] and in assay [6] was > 100 µM each time. The TGI in assay [7], in assay [8], in assay [9], in [11], in [12] and in assay [13] was > 100 µM in each case.

With `c1ccc(NC2(c3nnnn3C3CCCCC3)CCNCC2)cc1`, the TGI is 51 µM in [1]; 55.4 µM in [3]; 40.9 µM in assay [4]; > 100 µM in assay [5]; 79.7 µM in assay [6]; 31.9 µM in assay [7]. The TGI is 31.3 µM in assay [8]; 62.3 µM in assay [9]; 31.7 µM in [10]; > 100 µM in [15]; 81.9 µM in [12]; > 100 µM in assay [13]. Besides, the TGI in [14] came to 32.7 µM.

As for `N#CCCN(CCC#N)c1ccc(/C=C2\N=C(c3ccccc3)N(NC(=O)c3ccncc3)C2=O)cc1`, the TGI in assay [1], in assay [4], in assay [5], in assay [6], in assay [7] and in [8] was > 100 µM in each case. Also, the TGI in assay [9], in assay [10], in assay [11], in assay [15], in assay [12] and in [13] was > 100 µM in each case.

Take `CSc1ccc(C=C2N=C(c3ccccc3)N(c3cc(C(=O)c4ccccc4)ccc3N3C(=O)/C(=C/c4ccc(SC)cc4)N=C3c3ccccc3)C2=O)cc1`: the TGI in [1] is > 100 µM; in [2] it was > 100 µM; in [3], 62.4 µM; in assay [4], > 100 µM; in [5], > 100 µM; in assay [6], > 100 µM. Also, the TGI in [7] was > 100 µM; in assay [8], > 100 µM; in assay [10], > 100 µM; in assay [11], 55.1 µM; in assay [15], > 100 µM; in assay [12], > 100 µM. Also, the values for the TGI in [13] and in assay [14] were > 100 µM and 61.5 µM, respectively.

Consider `CCOC(=O)c1cc(NC(=O)c2ccccc2)c(=O)n2c(cc3c(Cl)cccc32)c1O`, for which the TGI in assay [1], in assay [2], in assay [3], in [4], in assay [5] and in assay [6] was > 100 µM throughout. The TGI in assay [7], in assay [8], in assay [9], in [10], in assay [11] and in assay [15] was > 100 µM in each case. Moreover, the TGI in [12] and in [13] was > 100 µM each time.

For the molecule `CC(=O)NC1C(OCc2ccccc2)OC(CO)C(O)C1OCC(=O)NC(C)C(=O)NC(CCC(=O)Nc1ccc2c(c1)CN1C(=O)c3ccccc3C1=N2)C(N)=O` (centres undefined), the TGI in assay [1], in [2], in assay [3], in [4], in [5] and in assay [6] was > 100 µM throughout. The TGI in assay [7], in [8], in assay [10], in assay [11], in assay [15] and in assay [12] was > 100 µM throughout. Besides, the TGI in assay [13] and in assay [14] was > 100 µM each time.

As to `O=C1Nc2ccccc2/C1=C\c1c(Cl)[nH]c2ccccc12`, the TGI worked out at 4.78 µM in assay [1]; 7.77 µM in [2]; 3.44 µM in assay [3]; 1.23 µM in assay [4]; 20 µM in assay [5]; 5.29 µM in [6]. The TGI in [7] is 7.51 µM; in assay [8], 1.67 µM; in [9], 35.5 µM; in [10], 2.59 µM; in [11], 17.5 µM; in assay [12] it was 8.51 µM. In [13], this molecule displayed a TGI of 7.72 µM.

In the case of `COC(=O)C(CCCCNC(=O)OCc1ccccc1)NC(=O)C(CCC(=O)OCc1ccccc1)NC(=O)OC(C)(C)C` (centres undefined) (Boc-Glu(OBn)-Lys(Cbz)-OMe; configuration not given here), the TGI was 66.5 µM in [1]; > 100 µM in [2]; > 100 µM in assay [4]; > 100 µM in assay [5]; > 100 µM in assay [6]; 32.2 µM in assay [7]. Moreover, the TGI in [8], in [9], in assay [11], in assay [15], in assay [12] and in assay [13] was > 100 µM in each case. Also, in [14], the TGI is > 100 µM.
